The target of experiment [1] is Ryanodien receptor (Spodoptera exigua) (UniProt H9CNL0). Put plainly: Activation of ryanodine receptor in sixth-instar larvae of Spodoptera litura muscle membrane assessed as induction of Ca2+ pump at 1 to 100 uM after 30 min.
A further experiment concerns Spodoptera litura. The experiment can be described thus: Insecticidal activity against Spodoptera litura cabbage leaf disk after 4 to 7 days by leaf dipping method. Format: functional. Particulars: foliar.
Experiment [2] deals with Ryanodien receptor (Spodoptera exigua) (UniProt H9CNL0). Put plainly: Activation of ryanodine receptor in sixth-instar larvae of Spodoptera litura muscle membrane assessed as induction of Ca2+ pump at 0.1 uM after 30 min in presence of ryanodine.
Experiment [3] has the same target. The experiment can be described thus: Activation of ryanodine receptor in sixth-instar larvae of Spodoptera litura muscle membrane assessed as induction of Ca2+ pump at 10 uM after 30 min relative to control.
For experiment [4] the target is unchanged. Put plainly: Activation of ryanodine receptor in sixth-instar larvae of Spodoptera litura muscle membrane assessed as induction of Ca2+ pump at 1 uM after 30 min relative to control.
Experiment [5] has the same target. Put plainly: Activation of ryanodine receptor in sixth-instar larvae of Spodoptera litura muscle membrane assessed as induction of Ca2+ pump at 0.1 uM after 30 min relative to control.
Experiment [6] shares this target. Put plainly: Activation of ryanodine receptor in sixth-instar larvae of Spodoptera litura muscle membrane assessed as induction of Ca2+ pump at 2 uM after 30 min relative to control.
For experiment [7] the target is unchanged. Put plainly: Activation of ryanodine receptor in sixth-instar larvae of Spodoptera litura muscle membrane assessed as induction of Ca2+ pump at 0.4 uM after 30 min relative to control.

Each structure is given as a SMILES string. ≈ marks a conversion by molar mass, not a printed value. Calls of active or inactive are those of the source. The calls are words filed in the database; no cut-off is given here.

On to `CC(C)[C@@]1(O)[C@@H](OC(=O)c2cc[nH]c2)[C@@]2(O)[C@]3(C)C[C@@]4(O)O[C@@]5([C@H](O)[C@@H](C)CC[C@]35O)[C@@]2(O)[C@@]41C`, for which the outcome in experiment [1] was Active. Compound `Cc1cc(Cl)ccc1NC(=O)c1ccccc1C(=O)NC(C)C` displayed an LC50 with Spodoptera litura of 10 µg/mL (≈ 30.2 µM). Same read-out and setting: with `Cc1cc(OC(F)F)ccc1NC(=O)c1cccc(I)c1C(=O)NC(C)C` the figure was 1 µg/mL (≈ 2.05 µM). Same read-out and setting: for `CSCC(C)(C)NC(=O)c1c(C(=O)Nc2ccc(C(F)(C(F)(F)F)C(F)(F)F)cc2C)cc(Cl)c(Cl)c1I` the value was greater than 10 µg/mL. On to `CSCC(C)(C)NC(=O)c1c(I)cccc1C(=O)Nc1ccc(C(F)(C(F)(F)F)C(F)(F)F)cc1C`, for which, in the experiment with Spodoptera litura, the LC50 was found to be 0.03 µg/mL (≈ 0.0461 µM).

Regarding `Cc1cc(C(F)(C(F)(F)F)C(F)(F)F)ccc1NC(=O)c1cccc(I)c1C(=O)NC(C)(C)CS(C)(=O)=O` [FLUBENDIAMIDE], in experiment [2], the outcome was inactive. The same compound had an LC50 in the experiment with Spodoptera litura of 0.03 µg/mL (≈ 0.044 µM).

In the experiment with Spodoptera litura, `Cc1cc(OC(F)(F)F)ccc1NC(=O)c1cccc(I)c1C(=O)NC(C)C` yielded an LC50 of 1 µg/mL (≈ 1.98 µM). In the case of `Cc1cc(Cl)ccc1NC(=O)c1cccc(Br)c1C(=O)NC(C)C`, in the experiment with Spodoptera litura, the LC50 is 10 µg/mL (≈ 24.4 µM). Take `C/C=C(/C)C(=O)O[C@H]1C(C)=C2[C@H]([C@@H]1OC(=O)CCCCCCC)[C@@](C)(OC(C)=O)C[C@H](OC(=O)CCC)[C@@]1(O)[C@H]2OC(=O)[C@@]1(C)O`: the results for the Activity in experiment [3], in experiment [4] and in experiment [5] were 31%, 31.7% and 67.8%, respectively. On to `Cc1cc(C(F)(F)C(F)(F)F)ccc1NC(=O)c1cccc(I)c1C(=O)NC(C)C`, for which the LC50 with Spodoptera litura was 0.3 µg/mL (≈ 0.555 µM).

As for `Cc1cc(C(F)(C(F)(F)F)C(F)(F)F)ccc1NC(=O)c1cccc(I)c1C(=O)NC(C)C`, the median lethal concentration (LC50) with Spodoptera litura worked out at 0.1 µg/mL (≈ 0.169 µM). Against the preceding compound, the LC50 is about 3-fold lower. `CNc1ccc2oc(C[C@H]3O[C@@]4(CC[C@H]3C)O[C@H]([C@H](C)C(=O)c3ccc[nH]3)[C@H](C)C[C@H]4C)nc2c1C(=O)O`: the values for the Activity in experiment [6] and in experiment [7] were 358% and 158%, respectively.

The LC50 is the concentration lethal to half of the exposed cells or organisms. Higher therefore signals lower toxicity.

Values taken from ChEMBL document CHEMBL3045342, “Quantitative relationship between insecticidal activity and Ca2+ pump stimulation by flubendiamide and its related compounds” (J Pestic Sci, 2009).
